In experiment [1] the target is Cystic fibrosis transmembrane conductance regulator (Homo sapiens, UniProt P13569, F508DEL). As to the kind of experiment: Agonist activity at CFTR-deltaF508 mutant expressed in NIH3T3 cells assessed as increase in forskolin-stimulated current. Type of experiment: functional, cell-based.
Experiment [2] has as its system Cystic fibrosis transmembrane conductance regulator (Homo sapiens), P13569 [F508del]. As to the kind of experiment: Agonist activity at CFTR-deltaF508 mutant expressed in NIH3T3 cells assessed as increase in forskolin-stimulated current at 30 uM by whole cell assay relative to control. Type of experiment: functional, cell-based.
Experiment [3] shares this test system. As to the kind of experiment: Agonist activity at CFTR-deltaF508 mutant expressed in NIH3T3 cells assessed as increase in forskolin-stimulated current at 30 uM by whole cell assay relative to genistein. It counts as functional, cell-based.
The test system of experiment [4] is Cystic fibrosis transmembrane conductance regulator (Homo sapiens), P13569 [K1250A]. As to the kind of experiment: Agonist activity at CFTR-K1250A mutant assessed as increase in forskolin-stimulated current at 5 uM. Type of experiment: functional.
Cystic fibrosis transmembrane conductance regulator (Homo sapiens), P13569 [K1250A], sequence (P13569 whole entry K1250A): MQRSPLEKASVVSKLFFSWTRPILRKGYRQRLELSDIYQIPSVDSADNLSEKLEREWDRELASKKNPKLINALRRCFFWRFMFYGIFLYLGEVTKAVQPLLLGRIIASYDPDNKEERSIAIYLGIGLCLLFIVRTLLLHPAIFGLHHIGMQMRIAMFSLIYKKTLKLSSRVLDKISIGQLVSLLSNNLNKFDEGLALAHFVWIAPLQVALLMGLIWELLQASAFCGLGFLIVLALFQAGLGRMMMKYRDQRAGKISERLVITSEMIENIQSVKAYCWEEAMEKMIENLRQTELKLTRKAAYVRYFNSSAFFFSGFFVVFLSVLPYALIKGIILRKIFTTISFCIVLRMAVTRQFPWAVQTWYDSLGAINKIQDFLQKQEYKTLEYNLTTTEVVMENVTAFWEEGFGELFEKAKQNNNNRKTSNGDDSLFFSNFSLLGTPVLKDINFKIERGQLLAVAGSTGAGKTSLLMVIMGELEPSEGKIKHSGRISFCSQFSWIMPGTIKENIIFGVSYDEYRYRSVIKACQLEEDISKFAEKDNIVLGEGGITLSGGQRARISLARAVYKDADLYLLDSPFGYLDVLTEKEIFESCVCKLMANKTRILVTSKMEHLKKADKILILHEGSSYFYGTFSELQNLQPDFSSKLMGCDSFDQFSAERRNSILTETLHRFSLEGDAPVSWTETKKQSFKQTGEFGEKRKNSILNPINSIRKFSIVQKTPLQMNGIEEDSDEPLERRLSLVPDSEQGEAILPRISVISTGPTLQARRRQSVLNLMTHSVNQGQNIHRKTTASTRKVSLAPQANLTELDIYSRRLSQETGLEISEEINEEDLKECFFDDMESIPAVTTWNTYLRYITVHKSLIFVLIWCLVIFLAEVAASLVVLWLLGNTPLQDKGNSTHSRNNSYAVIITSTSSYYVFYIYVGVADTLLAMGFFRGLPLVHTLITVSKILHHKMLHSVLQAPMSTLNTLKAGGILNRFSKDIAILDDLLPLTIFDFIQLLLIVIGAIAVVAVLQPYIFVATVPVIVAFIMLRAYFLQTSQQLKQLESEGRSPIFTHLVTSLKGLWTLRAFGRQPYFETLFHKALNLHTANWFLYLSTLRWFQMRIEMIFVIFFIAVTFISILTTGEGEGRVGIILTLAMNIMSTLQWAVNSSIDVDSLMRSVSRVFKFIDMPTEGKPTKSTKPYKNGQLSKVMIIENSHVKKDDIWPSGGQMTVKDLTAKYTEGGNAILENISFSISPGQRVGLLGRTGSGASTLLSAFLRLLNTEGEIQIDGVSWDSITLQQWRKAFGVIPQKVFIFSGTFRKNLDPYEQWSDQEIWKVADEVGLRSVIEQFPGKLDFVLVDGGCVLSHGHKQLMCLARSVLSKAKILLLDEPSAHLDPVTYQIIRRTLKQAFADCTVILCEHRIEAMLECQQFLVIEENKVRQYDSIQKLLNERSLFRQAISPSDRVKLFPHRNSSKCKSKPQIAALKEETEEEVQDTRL
Experiment [5] concerns Cystic fibrosis transmembrane conductance regulator (Homo sapiens), P13569 [F508del]. Put plainly: Agonist activity at CFTR-deltaF508 mutant expressed in NIH3T3 cells assessed as increase in forskolin-stimulated current at 20 uM by whole cell assay relative to control. Type of experiment: functional, cell-based.
Cystic fibrosis transmembrane conductance regulator (Homo sapiens), P13569 [F508del], sequence (P13569 as listed by the source): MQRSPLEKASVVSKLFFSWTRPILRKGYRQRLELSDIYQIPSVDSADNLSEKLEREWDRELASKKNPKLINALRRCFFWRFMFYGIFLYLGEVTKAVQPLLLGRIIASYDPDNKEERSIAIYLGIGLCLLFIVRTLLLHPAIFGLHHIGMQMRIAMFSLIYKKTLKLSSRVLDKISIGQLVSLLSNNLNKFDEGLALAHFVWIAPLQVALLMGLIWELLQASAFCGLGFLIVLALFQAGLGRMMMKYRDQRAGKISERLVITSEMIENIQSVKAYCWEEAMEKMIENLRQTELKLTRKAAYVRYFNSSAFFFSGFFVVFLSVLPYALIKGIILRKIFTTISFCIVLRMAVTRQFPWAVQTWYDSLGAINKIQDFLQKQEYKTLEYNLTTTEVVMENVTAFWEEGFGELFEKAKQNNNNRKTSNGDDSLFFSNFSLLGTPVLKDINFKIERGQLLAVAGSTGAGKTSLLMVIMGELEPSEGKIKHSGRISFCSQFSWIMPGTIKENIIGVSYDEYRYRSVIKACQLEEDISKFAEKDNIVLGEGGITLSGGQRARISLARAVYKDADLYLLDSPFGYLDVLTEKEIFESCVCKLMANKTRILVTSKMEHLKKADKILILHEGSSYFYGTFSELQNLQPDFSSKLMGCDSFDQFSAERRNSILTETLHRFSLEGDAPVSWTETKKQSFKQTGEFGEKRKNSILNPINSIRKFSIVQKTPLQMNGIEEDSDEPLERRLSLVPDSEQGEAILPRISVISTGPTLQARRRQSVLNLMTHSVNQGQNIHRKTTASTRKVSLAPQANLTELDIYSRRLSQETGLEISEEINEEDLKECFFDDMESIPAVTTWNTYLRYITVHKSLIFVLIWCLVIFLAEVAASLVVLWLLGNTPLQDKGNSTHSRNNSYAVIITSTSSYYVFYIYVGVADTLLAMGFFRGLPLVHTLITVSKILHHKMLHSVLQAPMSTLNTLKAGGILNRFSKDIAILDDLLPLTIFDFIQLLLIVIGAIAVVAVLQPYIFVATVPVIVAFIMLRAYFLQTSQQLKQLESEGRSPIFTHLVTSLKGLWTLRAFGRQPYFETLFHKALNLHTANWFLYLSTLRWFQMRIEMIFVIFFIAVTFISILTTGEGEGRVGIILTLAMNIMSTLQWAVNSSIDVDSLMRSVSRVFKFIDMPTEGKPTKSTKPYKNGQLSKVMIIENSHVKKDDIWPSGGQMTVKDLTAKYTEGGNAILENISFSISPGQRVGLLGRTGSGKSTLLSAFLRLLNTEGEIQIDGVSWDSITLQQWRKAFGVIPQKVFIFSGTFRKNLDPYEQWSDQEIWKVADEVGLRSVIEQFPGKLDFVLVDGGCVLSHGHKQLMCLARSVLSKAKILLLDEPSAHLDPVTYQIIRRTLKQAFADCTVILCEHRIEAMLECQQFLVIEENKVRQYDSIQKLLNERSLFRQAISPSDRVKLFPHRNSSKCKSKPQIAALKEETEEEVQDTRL

Cystic fibrosis transmembrane conductance regulator, sequence (P13569 as listed by the source): as above

As usually defined, the EC50 is the midpoint of the concentration-response curve. For `O=c1cc(-c2ccncc2)oc2c1ccc1ccccc12`, the EC50 in experiment [1] amounted to 3.5 µM. The fold change (FC) in experiment [2] was found to be 3.76; in experiment [4], 1.11; in experiment [5], 3.69. For the same compound, the Activity in experiment [3] was determined as 31%.
For `O=c1c(-c2ccc(O)cc2)coc2cc(O)cc(O)c12`, in experiment [5], the fold change (FC) was 8.29.

The values are drawn from ChEMBL document CHEMBL1155125 (Bioorg Med Chem Lett, 2008).
